Reference: patent US20130225535A1, “SYNERGISTIC FUNGICIDAL COMPOSITION” (MAKHTESHIM CHEMICAL WORKS LTD., priority 2010, published 2013)

Assays:
Plasmopara viticola = experiment: Control of Plasmopara viticola (downy mildew) on detached grapevine leaves, ED90 by Probit analysis, synergy by Wadley method; assay type: in vivo; conditions: detached grape leaves, spray before inoculation, 7-10 days after inoculation
Description: (§1) A synergistic effect exists whenever the action of an active ingredient combination is greater than the sum of the actions of the individual components. The Wadley Method is well-known method for determining whether synergy exists. In the Wadley Method, synergistic activity is determined from dose, response curves. With this method, the efficacy of the active ingredient (“a.i.”) is determined by comparing the degree of fungal attack on treated plants with that on untreated, similarly inoculated and incubated check plants. Each a.i. is generally tested at multiple (e.g., six) concentrations and dose response curves are generated. The dose response curves are used to establish the ED90 (i.e., estimated concentration required to produce 90% killing of fungi) of the individual compounds as well as of the combinations (ED90observed). The experimentally found values of the mixture at a given weight ratio are compared with the values that would have been found where only a complementary efficacy of the components was present (ED90 (A+B) expected). The ED90 (A+B) expected is generally calculated according to Wadley (Levi et al., EPPO-Bulletin 16, 1986, 651-657) or (Wadley, F. M., U.S. Dep. Agric., Agric. Res. Adm., Bur. Entomol. And Plant Quar. ET-223, 1945, 8) as follows:
(§2) wherein a and b are the weight ratios of the compounds A and B in the mixture and the indexes (A), (B) and (A+B) refer to the observed ED90values of the compounds A, B or the A+B mixture thereof. The ratio ED90 (A+B)expected/ED90 (A+B)observed expresses the level of the synergistic factor (SF).
A trial was conducted to in order to estimate the synergistic interaction between three fungicides in controlling the oomycete, Plasmopara viticola, the downy mildew causal agent, in grapevines.
Commercially available compositions of dimethomorph (Sphinx 50 SC), folpet (Folpan 80 WDG) and fosetyl-Al (Aliette 80 WDG), as well as 80 wt. %, WDG composition comprising a combination of dimethomorph, folpet and fosetyl-Al (mixed at a weight ratio of 1:5:10) were suspended in water, diluted to a series of concentrations in water and sprayed onto the lower leaf surface of detached grape leaves to initial run off.
Two cultivars of grapevines (Vitis vinifera) were used: Carinian and Merlo, both susceptible to P. viticola. Grafted Carinian plants were grown in pots in the greenhouse whereas Merlo vines were grown in the field. Plants were regularly sprayed with appropriate fungicides to protect them against powdery mildew (Uncinulla necator). In total, five experiments were conducted, three with Carinian and two with Merlo.
The 3rd and the 4th leaf from top of a branch were detached, sprayed on lower leaf surface with a fungicide, three leaves per fungicide per concentration per cultivar, and placed lower surface uppermost on moist filter paper in a plastic tray (70×50×5 cm). Normally, one tray served for one cultivar and one fungicide and contained 27 leaves (21 leaves treated with 7 doses of a fungicide+6 control untreated leaves).
Trays with the sprayed leaves were placed in a ventilated hood for about one hour until the spray droplets dried off and thereafter were inoculated with the pathogen.
An isolate of P. viticola was propagated on detached leaves of Carinian by repeated inoculations. Sporangia were harvested from freshly sporulating leaves into ice-cold distilled water, their concentration adjusted to 1×10^5 sporangia/ml. Sporangial suspension was sprayed onto the lower surface of the treated and control leaves laying in the trays. Trays were thereafter wrapped with cellophane bags, kept at 15° C. in the dark for 20 h and then at 20° C. under 14 h light photoperiod. At 7-10 days after inoculation, disease development was recorded by visual estimation of the leaf area occupied with sporophores and spores of P. viticola.
Mean sporulating leaf area was then calculated for each treatment (n=3, n for control=6). A mean value was calculated for all four controls in an experiment. […]

[1] = test system: DMM-resistant isolates of Pseudoperonospora cubensis; experiment: Control of DMM-resistant isolates of Pseudoperonospora cubensis on intact cucumber plants, ED90 and Wadley synergy; assay type: in vivo; conditions: for ED90 observed Trial 1: Trial 1, downy mildew lesions per leaf; for ED90 observed Trial 2: Trial 2, downy mildew lesions per leaf
Description: as §1, §2
A trial was conducted to estimate the synergistic interaction between three fungicides in controlling DMM-resistant isolates of P. cubensis, the causal agent of downy mildew in cucurbits.
Commercially available compositions of dimethomorph (Sphinx 50 SC), folpet (Folpan 80 WDG) and fosetyl-Al (Aliette 80 WDG), as well as 80 wt. %, WDG composition comprising a combination of dimethomorph, folpet and fosetyl-Al (mixed at a weight ratio of 1:5:10) were suspended in water, diluted to a series of concentrations in water, and sprayed initial run off.
Two isolates of P. cubensis were used. Intact, two-true leaf cucumber plants (n=2) were used for inoculation. Inoculation and incubation were conducted according to the description in example 1, except that sporangial concentration was adjusted to 2×103 sporangia/ml. Disease records were taken by counting the number of downy mildew lesions per leaf (n=4). Data analysis was done as described in Example 1.

| SMILES | ED90 observed Trial 1 (Plasmopara viticola) | ED90 observed Trial 2 (Plasmopara viticola) | ED90 observed Trial 3 (Plasmopara viticola) | ED90 observed Trial 4 (Plasmopara viticola) | ED90 observed Trial 5 (Plasmopara viticola) | ED90 observed Trial 1 [1] | ED90 observed Trial 2 [1] |
| --- | --- | --- | --- | --- | --- | --- | --- |
| COc1ccc(C(=CC(=O)N2CCOCC2)c2ccc(Cl)cc2)cc1OC [Dimethomorph, dimethomorph] | 2.42 µg/mL | 1.81 µg/mL | 0.91 µg/mL | 3.95 µg/mL | 2.25 µg/mL | 701 µg/mL | 424 µg/mL |
| O=C1c2ccccc2C(=O)N1SC(Cl)(Cl)Cl [Folpet, folpet] | 65.8 µg/mL | 30.6 µg/mL | 57.1 µg/mL | 61.8 µg/mL | 39.8 µg/mL | 254 µg/mL | 81 µg/mL |
| CCO[PH](=O)O [Fosetyl-Al, fosetyl-Al] | 936 µg/mL | 1522 µg/mL | 611 µg/mL | 274 µg/mL | 297 µg/mL | 2088 µg/mL | 508 µg/mL |
